Assays:
[1] = tested on: Salmonella spp.; test: Cat palatant solutions (15% w/v) challenged with liquid Salmonella spp. inoculum; assay type: cell-based, Salmonella enterica
Protocol: In the Phase 3 experiment described below, solutions (15% w/v) of cat palatant samples were challenged with a “Low” concentration (1,000 CFU/ml) and a “High” concentration (1,000,000 CFU/ml) of a liquid Salmonella spp. inoculum in an effort to evaluate the antimicrobial effect of each palatant. Salmonella was enumerated from each palatant at three time points after challenge; immediately, 24 hours and 6 days.
(§1) Preparation of palatant samples. Four samples of a cat palatant formulated with varying levels of fumaric acid (Table 6) were aseptically weighed in duplicate sterile 50 ml conical test tubes. To each test tube, 10 ml of sterile deionized water was added and mixed by vortex. The pH of a 5% (w/v) solution of each palatant was also measured (Table 6).
Five Salmonella enterica serovars [S. enterica (ATTC® 51741™), Montevideo (ATCC® 8387™), Typhimurium (ATCC® 14028™), Senftenberg (ATCC® 43845™), Schwarzengrund (4012)] were kept as frozen stocks at −70° C. in Bacto™ Tryptic Soy Broth (TSB) with 20% (w/v) glycerol. One vial of each culture was thawed at room temperature and 0.100 ml was transferred to […] (pH 7.2) containing (g/l) pancreatic digest of casein: 17, enzymatic digest of soybean meal: 3, sodium chloride, 5, dipotassium phosphate: 2.5, dextrose, 2.5, then incubated at 37° C. for 24 hours on a platform shaker set at 190 rpm. One ml of each overnight culture was diluted in 9 ml 0.85% saline and enumerated using a Petroff Hauser Counting Chamber. Each culture was further diluted in 0.85% saline to obtain two concentrations of inoculum; 100,000 CFU/ml (Low) and 100,000,000 CFU/ml (High).
One hundred μl of each Low and High diluted Salmonella inoculum was pipetted into one of each duplicate palatant tubes to obtain one tube with 1,000 CFU/ml (Low) and one tube with […] (High). Samples were analyzed immediately after challenging, 24 hours and 6 days after storage at 25° C.
Each tube of palatant was vortexed prior to serially diluting. Dilutions were pipetted into sterile petri plates. The plates were poured with tempered (45° C.) XLD agar. After solidification, plates were inverted and placed in an incubator (37° C.). Colonies were counted and CFU/ml was calculated. Detection limit of the method was 1 CFU/ml.

[2] = pH of fumaric acid-TSB solutions; assay type: physicochemical
Protocol: A 0.20% stock solution of fumaric acid was made by dissolving 0.100 g (w/v) fumaric acid in 50 ml sterile deionized water in a flask. The 0.20% stock was diluted 1:2 in sterile deionized water to obtain a 0.10% fumaric acid solution, which was then diluted 1:2 to obtain a 0.05% fumaric acid solution. Each fumaric acid stock solution (0.20%, 0.10% and 0.05%) was further diluted 1:2 in TSB (pH 4.9) to yield fumaric acid-TSB solutions of 0.100%, 0.050% and 0.025%. The pH of each fumaric-TSB solution was measured (Table 1). One hundred μl of each fumaric-TSB solution was added to triplicate wells containing 100 μl standardized inoculum. One hundred μl of untreated (0% fumaric) TSB (pH 4.9) was added to triplicate wells containing 100 μl standardized inoculum as a control. The microplate was placed in a Versamax Microplate Reader (Molecular Devices) (37° C.) with wavelength set to 600 nm. The optical density (OD600) was read every 2 hours for 48 hours.

[3] = pH of 5% (w/v) solution of cat palatant formulated with fumaric acid; assay type: physicochemical
Protocol: as §1

O=C(O)/C=C/C(=O)O [Fumaric Acid, fumaric acid]
Salmonella counts ([1]; High inoculation (1,000,000 CFU/ml), 14% fumaric, day 0): <1 CFU/ml | Salmonella counts ([1]; High inoculation, 14% fumaric, day 1): <1 CFU/ml | Salmonella counts ([1]; High inoculation, 14% fumaric, day 6): <1 CFU/ml | Salmonella counts ([1]; High inoculation, 20% fumaric, day 0): <1 CFU/ml | Salmonella counts ([1]; High inoculation, 20% fumaric, day 1): <1 CFU/ml | Salmonella counts ([1]; High inoculation, 20% fumaric, day 6): <1 CFU/ml | Salmonella counts ([1]; High inoculation, 27% fumaric, day 0): <1 CFU/ml | Salmonella counts ([1]; High inoculation, 27% fumaric, day 1): <1 CFU/ml | Salmonella counts ([1]; High inoculation, 27% fumaric, day 6): <1 CFU/ml | Salmonella counts ([1]; Low inoculation (1,000 CFU/ml), 14% fumaric in palatant, day 0): <1 CFU/ml | Salmonella counts ([1]; Low inoculation, 14% fumaric, day 1): <1 CFU/ml | Salmonella counts ([1]; Low inoculation, 14% fumaric, day 6): <1 CFU/ml | Salmonella counts ([1]; Low inoculation, 20% fumaric, day 0): <1 CFU/ml | Salmonella counts ([1]; Low inoculation, 20% fumaric, day 1): <1 CFU/ml | Salmonella counts ([1]; Low inoculation, 20% fumaric, day 6): <1 CFU/ml | Salmonella counts ([1]; Low inoculation, 27% fumaric, day 0): <1 CFU/ml | Salmonella counts ([1]; Low inoculation, 27% fumaric, day 1): <1 CFU/ml | Salmonella counts ([1]; Low inoculation, 27% fumaric, day 6): <1 CFU/ml | pH in TSB ([2]; 0.025% fumaric acid): 4.67 | pH in TSB ([2]; 0.050% fumaric acid): 4.42 | pH in TSB ([2]; 0.100% fumaric acid): 4.06 | pH ([3]; cat palatant with 14% fumaric acid in formula): 3.15 | pH ([3]; cat palatant with 20% fumaric acid in formula): 3.01 | pH ([3]; cat palatant with 27% fumaric acid in formula): 2.93
